Columns and labels:
[1] = system: organophosphorous agent resistant two-spotted spider mites; experiment: Effect on Two-spotted Spider Mite (spray on kidney bean leaves); format: in vivo; details: 125 ppm, water dispersible powder of Formulation Example 1 sprayed, 17 female adults, 25° C., 65% humidity, 3 days
Method in brief: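 Mortality of adult females counted after 3 days at 25 °C and 65% humidity, following a 125 ppm spray of wettable-powder dilution onto infested 7–10-day-old bean seedlings (17 mites per leaf). Two replicates.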

[2] = system: acaricide resistant citrus red mites; experiment: Effect on Citrus Red Mite (spray on mandarin orange leaves); format: in vivo; details: 31 ppm, emulsifiable concentrate of Formulation Example 2 sprayed, 10 female adults, 25° C., 65% humidity
Method: Effect on Citrus Red Mite
10 female adults of acaricide resistant citrus red mites were inoculated onto leaves of a mandarin orange placed on dishes, onto which each of liquid agents, diluted with water so as to adjust the respective concentration of the chemical compounds to 31 ppm according to the formulation of the emulsifiable concentrate shown in the aforementioned Formulation Example 2, was sprayed by using a rotating sparge tower. After they were left in a thermostatic chamber at 25° C. in 65% humidity for 3 days, and were then removed from the dishes, eggs laid for 3 days were investigated whether they could grow to adults or not on the eleventh day. As the results, the following chemical compounds killed 100% of the adults. 1-13, 1-15, 1-22, 1-27, 1-45, 1-54, 1-59, 1-63, 1-66, 1-69, 1-71, 1-72, 1-75, 1-80, 1-88, 1-89, 1-92, 1-93, 1-94, 1-97, 1-98, 1-100, 1-102, 1-105, 1-108, 1-133, 1-136, 1-142, 1-153, 1-181, 1-183, 1-186, 1-187, 1-188, 1-189, 1-190, 1-191,

SMILES	rate of killed adults [1]	killed ... of the adults (eggs laid for 3 days investigated whether they could grow to adults on the eleventh day) [2]
CC(C)COc1cc(C(F)(F)F)ccc1OC1CCN(c2ccc(C(F)(F)F)cn2)CC1 [1-102]	100%	100%
CCCOc1cc(C(F)(F)F)ccc1OC1C2CCC1CN(c1ccc(C(F)(F)F)cn1)C2 (stereo not drawn) [5-97, 8β-[2-propoxy-4-(trifluoromethyl)phenoxy]-3-[5-(trifluoromethyl)-2-pyridyl]-3-azabicyclo[3.2.1]octane]	100%	100%
FC(F)(Br)Oc1ccc(OC2CCN(c3ccc(C(F)(F)F)cn3)CC2)cc1 [1-136]	100%	100%
CCCOc1cc(C(F)(F)F)ccc1OC1CCN(c2ccc(C(F)(F)F)cn2)CC1 [1-92]	100%	100%
CC(C)Oc1cc(C(F)(F)F)ccc1OC1CCN(c2ccc(C(F)(F)F)cn2)CC1 [1-100]	100%	100%
FC(F)(F)c1ccc(N2CC3CCC(C2)C3Oc2ccc(C(F)(F)F)cc2C2CCCO2)nc1 (stereo not shown) [5-237]	100%	100%
FC(F)(F)c1ccc(N2CC3CCC(C2)C3Oc2ccc(C(F)(F)F)cc2OCC2OCCO2)nc1 (stereo not shown) [5-203]	100%	100%
COCOc1cc(C(F)(F)F)ccc1OC1C2CCCC1CN(c1ccc(C(F)(F)F)cn1)C2 (stereo not drawn) [7-100, 9β-[2-methoxymethoxy-4-(trifluoromethyl)phenoxy]-3-[5-(trifluoromethyl)-2-pyridyl]-3-azabicyclo[3.3.1]nonane]	100%	100%
CCOCOCc1cc(C(F)(F)F)ccc1OC1CCN(c2ccc(C(F)(F)F)cn2)CC1 [1-71]	100%	100%
COC(=O)c1cc(C(F)(F)F)ccc1O[C@@H]1[C@@H]2CC[C@H]1CN(c1ccc(C(F)(F)F)cn1)C2 [5-243]	100%	100%
FC(F)(F)c1ccc(N2C[C@H]3CC[C@@H](C2)[C@@H]3Oc2ccc(C(F)(F)F)cc2OCC2CC2)nc1 [5-116]	100%	100%
FC(F)(F)c1ccc(N2C[C@H]3CC[C@@H](C2)[C@@H]3Oc2ccc(C(F)(F)F)cc2Br)nc1 [5-22]	100%	100%
FC(F)(F)c1ccc(N2CC3CCC(C2)C3Oc2ccc(C(F)(F)F)cc2C2C=CCO2)nc1 (stereo not shown) [5-236]	100%	100%
CCOC(=O)c1cc(C(F)(F)F)ccc1OC1C2CCC1CN(c1ccc(C(F)(F)F)cn1)C2 (stereo not shown) [5-233]	100%	100%
C#CCOc1cc(C(F)(F)F)ccc1OC1C2CCC1CN(c1ccc(C(F)(F)F)cn1)C2 (stereo not shown) [5-177]	100%	100%
CCCCOc1cc(C(F)(F)F)ccc1OC1C2CCC1CN(c1ccc(C(F)(F)F)cn1)C2 (stereo not shown) [5-224]	100%	100%
CC(C#N)OCc1cc(C(F)(F)F)ccc1OC1C2CCC1CN(c1ccc(C(F)(F)F)cn1)C2 (stereo not shown) [5-230]	100%	100%
COCOC(C)c1cc(C(F)(F)F)ccc1O[C@@H]1[C@@H]2CC[C@H]1CN(c1ccc(C(F)(F)F)cn1)C2 (stereo partly shown) [5-73]	100%	100%
CCOc1cc(C(F)(F)F)ccc1OC1CCN(c2ccc(C(F)(F)F)cn2)CC1 [1-89]	100%	100%
COCOCc1cc(C(F)(F)F)ccc1O[C@@H]1[C@@H]2CC[C@H]1CN(c1ccc(C(F)(F)F)cn1)C2 [5-69]	100%	100%
CCCOc1cc(C(F)(F)F)ccc1OC1C2CCCC1CN(c1ccc(C(F)(F)F)cn1)C2 (stereo not shown) [7-82, 90-[2-propoxy-4-(trifluoromethyl)phenoxy]-3-[5-(trifluoromethyl)-2-pyridyl]-3-azabicyclo[3.3.1]nonane]	100%	100%
FC(F)(F)c1ccc(N2CC3CCC(C2)C3Oc2ccc(C(F)(F)F)cc2C2OCCO2)nc1 (stereo not shown) [5-215]	100%	100%
CCc1cc(Cl)ccc1OC1CCN(c2ccc(C(F)(F)F)cn2)CC1 [1-54]	100%	100%
FC(F)c1ccc(O[C@@H]2[C@@H]3CC[C@H]2CN(c2ccc(C(F)(F)F)cn2)C3)c(OCC2CC2)c1 [5-118]	100%	100%
CCOc1cc(C(F)(F)F)ccc1O[C@@H]1[C@@H]2CC[C@H]1CN(c1ccc(C(F)(F)F)cn1)C2 [5-90]	100%	100%

SMILES	rate of killed adults [1]	killed ... of the adults (eggs laid for 3 days investigated whether they could grow to adults on the eleventh day) [2]
COc1cc(C(F)(F)F)ccc1OC1CCN(c2ccc(C(F)(F)F)cn2)CC1 [1-88]	100%	100%
CC(C)OC(=O)c1cc(C(F)(F)F)ccc1O[C@@H]1[C@@H]2CC[C@H]1CN(c1ccc(C(F)(F)F)cn1)C2 [5-245]	100%	100%
CC(=O)OCCOc1cc(C(F)(F)F)ccc1OC1C2CCC1CN(c1ccc(C(F)(F)F)cn1)C2 (stereo not shown) [5-134]	100%	–
CC(OC(=O)c1cc(C(F)(F)F)ccc1OC1CC2CCC(C1)N2c1ccc(C(F)(F)F)cn1)C1CC1 (stereo not shown) [2-239]	100%	–
Cc1ccc(N2CC3CCC(C2)C3Oc2ccc(C(F)(F)F)cc2OC2CC2(Cl)Cl)nc1 (stereo not shown) [5-210]	100%	–
CCCCOc1cc(C(F)(F)F)ccc1OC1CC2CCC(C1)N2c1ccc(C(F)(F)F)cn1 (stereo not shown) [2-97]	100%	–
O=C(OCC1CC1)c1cc(C(F)(F)F)ccc1OC1CC2CCC(C1)N2c1ccc(C(F)(F)F)cn1 (stereo not shown) [2-237]	100%	–
CCCOc1cc(C(F)(F)F)cc(Cl)c1OC1CCN(c2ccc(C(F)(F)F)cn2)CC1 [1-18]	100%	–
FC(F)(F)c1ccc(N2C3CCC2CC(Oc2ccc(C(F)(F)F)cc2OCC2CC2)C3)nc1 (stereo not shown) [2-105]	100%	–
FC(F)(F)c1ccc(N2CCC(Oc3cccc(C(F)(F)F)c3)CC2)nc1 [1-76]	100%	–
CC(=O)COc1cc(C(F)(F)F)ccc1O[C@@H]1[C@@H]2CC[C@H]1CN(c1ccc(C(F)(F)F)cn1)C2 [5-126]	100%	–
CCOc1cc(C(F)(F)F)ccc1OC1CCN(c2ccc(Br)cn2)CC1 [1-91]	100%	–
CCC(C)OC(=O)c1cc(C(F)(F)F)ccc1OC1CC2CCC(C1)N2c1ccc(C(F)(F)F)cn1 (stereo not shown) [2-208]	100%	–
Cc1cc(Cl)ccc1OC1CCN(c2ccc(C(F)(F)F)cn2)CC1 [1-49]	100%	–
FC(F)(F)c1ccc(N2CCC(Oc3ccc(Cl)cc3)CC2)nc1 [1-10]	100%	–
C#CCOc1cc(C(F)(F)F)ccc1OC1CC2CCC(C1)N2c1ccc(C(F)(F)F)cn1 (stereo not shown) [2-143]	100%	–
FC(F)(F)c1ccc(N2C[C@H]3CC[C@@H](C2)[C@@H]3Oc2ccc(C(F)(F)F)cc2OC2CC2(Cl)Cl)nc1 (stereo partly shown) [5-104]	100%	–
CC1COC(c2cc(C(F)(F)F)ccc2OC2CC3CCC(C2)N3c2ccc(C(F)(F)F)cn2)=N1 (stereo not shown) [2-199]	100%	–
CC(C)COc1cc(C(F)(F)F)ccc1OC1CC2CCC(C1)N2c1ccc(C(F)(F)F)cn1 (stereo not shown) [2-98]	100%	–
CCCN(C)c1cc(C(F)(F)F)ccc1OC1CC2CCC(C1)N2c1ccc(C(F)(F)F)cn1 (stereo not shown) [2-161]	100%	–
CCOC(=O)c1cc(C(F)(F)F)ccc1OC1CC2CCC(C1)N2c1ccc(C(F)(F)F)cn1 (stereo not shown) [2-193]	100%	–
CSCOc1cc(C(F)(F)F)ccc1OC1CC2CCC(C1)N2c1ccc(C(F)(F)F)cn1 (stereo not shown) [2-182]	100%	–
FC(F)(F)c1ccc(O[C@@H]2[C@@H]3CC[C@H]2CN(c2ccc(C(F)(F)F)cn2)C3)cc1 [5-264]	100%	–
CCC(C)OCc1cc(C(F)(F)F)ccc1O[C@@H]1[C@@H]2CC[C@H]1CN(c1ccc(C(F)(F)F)cn1)C2 (stereo partly shown) [5-242]	100%	–
